Test results as given in patent publication US9029127B2, “Method of degrading TBP using a photosynthetic bacterial strain” (priority 2003, dated 2015).

Assays:
[1] = test system: Rp. palustris CGA009 (ATCC BAA-98); experiment: Effect of the cytochrome P450 inhibitor carbon monoxide on growth and TBP degradation of Rp. palustris; details: for effect of CO on growth: photosynthetic conditions, Hutner medium
Serratia odorifera sp. = experiment: Effect of carbon monoxide on growth and TBP degradation of Serratia odorifera; type: cell-based; details: aerobiosis; for effect of CO on growth: Tsb medium
[2] = test system: proteins extracted from Rp. palustris CGA009; type: biochemical, Rhodopseudomonas palustris
Rp. palustris = experiment: Growth of wild-type Rp. palustris in the presence of gentamycin; type: cell-based, Rhodopseudomonas palustris; details: gentamycin 50 μg·ml^−1
Rp. palustris ΔpRpa1 = type: cell-based, Rhodopseudomonas palustris

## [C-]#[O+] [CO, carbon monoxide]
[1]; 2 mM TBP present
  effect of CO on growth: greatly reduced
[1]; TBP absent
  effect of CO on growth: does not affect the growth
[1]; residual TBP after 21 days of culture, 2 mM TBP
  effect of CO on TBP degradation: considerable decrease in TBP degradation
Serratia odorifera sp.; 2 mM TBP
  effect of CO on TBP degradation yield: does not significantly modify
Serratia odorifera sp.; 2 mM TBP present
  effect of CO on growth: nor does it affect the growth
Serratia odorifera sp.; TBP absent
  effect of CO on growth: does not affect the growth

## Cc1cc2c(cc1C)N(C[C@H](O)[C@H](O)[C@H](O)COP(=O)(O)OP(=O)(O)OC[C@H]1O[C@@H](n3cnc4c(N)ncnc43)[C@H](O)[C@@H]1O)c1[nH]c(=O)[nH]c(=O)c1N2 [FADH2]
[2]
  effect of cofactor on TBP degradation: does not significantly enhance

## NC(=O)C1=CN([C@@H]2O[C@H](COP(=O)(O)OP(=O)(O)OC[C@H]3O[C@@H](n4cnc5c(N)ncnc54)[C@H](O)[C@@H]3O)[C@@H](O)[C@H]2O)C=CC1 [NADH]
[2]
  effect of cofactor on TBP degradation: does not significantly enhance

## gentamycin
Rp. palustris
  resistance of the strain to the antibiotic: naturally resistant
Rp. palustris ΔpRpa1
  growth in the presence of the antibiotic: grows in the presence of this antibiotic
